In publication PMC7617869, “Molecular glues that inhibit deubiquitylase activity and inflammatory signaling” (Nature Structural & Molecular Biology, 2025):
Where “and” joins values, the source holds several entries; their conditions need not be identical. Equal values may be shown once.

Assays:
[1] = test system: AMSH* (a STAM2–AMSH fusion); test: AMSH* IQF DUB activity assay; format: biochemical; conditions: Fig. 1g, AMSH*
Procedure: (§1) IQF assays were performed in DUB reaction buffer containing 50 mM HEPES–NaOH pH 7.0, 100 mM NaCl, 0.1 mg ml^−1 BSA, 1 mM DTT and 0.03% v/v Brij-35. […] The final concentration of BRISC WT, all BRISC mutants, HsBRISCΔLoop, MmBRISC and DrBRISCΔNΔC was 1 nM. Other enzymes were tested at the following concentrations: 5 nM ARISC (FL), 10 nM CfBRISCΔNΔC, 250 nM AMSH* (ref. [43]), 500 nM USP2 and 1 μM trypsin (Sigma, 9002-07-7). For Michaelis–Menten experiments, 1 nM BRISC with 0–1 μM IQF K63-linked diubiquitin substrate was used. Michaelis–Menten analyses and Lineweaver–Burk plots were calculated using GraphPad Prism (version 9.0).
(§2) To assess enzymatic activity, BRISC complexes were diluted to concentrations between 1 nM and 50 nM. […] Then, 20-μl enzyme reactions were carried out in 384-well black flat-bottom low-flange plates (Corning, 35373). DUB activity was measured using IQF K63-linked diubiquitin (LifeSensors, DU6303) at 50 nM. Cleaved diubiquitin was monitored by measuring fluorescence intensity (excitation, 544 nm; emission, 575 nm; dichroic mirror, 560 nm). Fluorescence intensity was measured every minute for 30 min at 30 °C. Fluorescence intensity units were plotted against time to generate a linear reaction progress curve, where the initial velocity (V0) corresponds to the gradient of the curve (typically achieved within 15 min). IC50 values were calculated using the GraphPad Prism (version 9.0) built-in dose–response equation for inhibitor concentration versus response (variable slope).

BRCC36–Abraxas 2 complex = target: T1, BRCC36–Abraxas 2 complex (Homo sapiens, UniProt P46736+Q15018); test: BRCC36–Abraxas 2 IQF DUB activity assay; format: biochemical; conditions: for Normalised V0: Fig. 1g, HsBRCC36-Abraxas2
T1 construct: made in house; host or cells: Spodoptera frugiperda (Sf9) insect cells, MultiBac
Procedure: as §1, §2

BRISC (FL) = target: T2, BRISC (FL) (Homo sapiens, UniProt P46736+Q15018+Q9NXR7); test: Native MS of BRISC with inhibitor; conditions: 10 μM BRISC, 1 mM inhibitor
T2 construct: full-length BRISC (FL), ARISC (FL); made in house; host or cells: Spodoptera frugiperda Sf9 insect cells (MultiBac)
Procedure: Samples were buffer-exchanged into 500 mM ammonium acetate using Zeba Spin (7-kDa molecular weight cutoff) desalting columns (Thermo Fisher Scientific). Samples were analyzed by nanoelectrospray ionization MS using a quadrupole orbitrap MS (Q-Exactive UHMR, Thermo Fisher Scientific) using gold–palladium-coated nanospray tips prepared in-house. The MS instrument was operated in positive ion mode using a capillary voltage of 1.5 kV, capillary temperature of 250 °C and S-lens radiofrequency of 200 V. In-source trapping was used with a desolvation voltage of −200 V for 4 μs. Extended trapping was not used. The quadrupole mass range was 2,000–15,000 m/z. Nitrogen gas was used in the higher-energy collisional dissociation cell with a trap gas pressure setting of 5. Orbitrap resolution was 6,250 and detector m/z optimization was low. Five microscans were averaged and an automatic gain control target of 2 × 10^5 was used. Mass calibration was performed by a separate injection of sodium iodide at a concentration of 2 μg μl^−1. Data processing was performed using QualBrowser (version 4.2.28.14) and deconvoluted using UniDec[82].

[2] = test system: ISG expression in MCF10A Cas9 cells expressing BRCC45 R137A; test: MCF10A BRCC45 R137A ISG expression (RT–qPCR); format: cell-based, human; conditions: hIFNα2 75 ng/ml, 2.5 μM, 4 h

With O=C(NC1C2CNCC21)c1nn(C(=O)c2c(Cl)cccc2Cl)cc1NC(=O)c1c(Cl)cccc1Cl (stereo not shown) [FX-171-C] the “Normalised V0” value ([1]; FX-171-C 0.02 μM) was 1.102 and 0.9959 and 1.122, the “Normalised V0” value ([1]; FX-171-C 0.0399999 μM) was 1.076 and 0.9687 and 1.118 and the “Normalised V0” value ([1]; FX-171-C 0.0599997 μM) was 1.166 and 0.9974 and 1.026. For the same compound, the “Normalised V0” value ([1]; FX-171-C 0.0799994 μM) was 1.155 and 1.046 and 1.034, the “Normalised V0” value ([1]; FX-171-C 0.119998 μM) was 1.236 and 1.107 and 1.142 and the “Normalised V0” value ([1]; FX-171-C 0.199996 μM) was 1.177 and 1.065 and 1.2539. For the same compound, the “Normalised V0” value ([1]; FX-171-C 0.499975 μM) was 0.9946 and 0.8997 and 1.162, the “Normalised V0” value ([1]; FX-171-C 0.799936 μM) was 1.22 and 0.8896 and 1.186 and the “Normalised V0” value ([1]; FX-171-C 1.25984 μM) was 1.058 and 1.1 and 1.143. For the same compound, the “Normalised V0” value ([1]; FX-171-C 1.9996 μM) was 1.14 and 1.15 and 1.191, the “Normalised V0” value ([1]; FX-171-C 3.159 μM) was 1.081 and 1.064 and 1.2182 and the “Normalised V0” value ([1]; FX-171-C 5.19739 μM) was 0.9976 and 1.106 and 1.16. The “Normalised V0” value ([1]; FX-171-C 7.99364 μM) was 1.138 and 1.066 and 1.161, the “Normalised V0” value ([1]; FX-171-C 12.7839 μM) was 1.171 and 0.9747 and 1.21 and the “Normalised V0” value ([1]; FX-171-C 19.96 μM) was 0.7795 and 0.741 and 1.28. For the same compound, the “Normalised V0” value ([1]; FX-171-C 31.4999 μM) was 1.112 and 1.039 and 1.002, the “Normalised V0” value ([1]; FX-171-C 50.147 μM) was 1.1142 and 0.9322 and 1.253 and the “Normalised V0” value ([1]; FX-171-C 79.7601 μM) was 1.095 and 0.9276 and 1.158. The “Normalised V0” value ([1]; FX-171-C 125.99 μM) was 1.097 and 0.9974 and 1.112, the “Normalised V0” value ([1]; FX-171-C 199.922 μM) was 0.8792 and 0.8896 and 0.9452 and the “Normalised V0” value (BRCC36–Abraxas 2 complex; FX-171-C 0.02 μM) was 1.3 and 1.008 and 1.02. The “Normalised V0” value (BRCC36–Abraxas 2 complex; FX-171-C 0.0399999 μM) was 1.022 and 1.101 and 0.829, the “Normalised V0” value (BRCC36–Abraxas 2 complex; FX-171-C 0.0599997 μM) was 1.02 and 1.119 and 0.8587 and the “Normalised V0” value (BRCC36–Abraxas 2 complex; FX-171-C 0.0799994 μM) was 1.3 and 1.0735 and 0.9036. For the same compound, the “Normalised V0” value (BRCC36–Abraxas 2 complex; FX-171-C 0.119998 μM) was 1.089 and 1.054 and 0.9805, the “Normalised V0” value (BRCC36–Abraxas 2 complex; FX-171-C 0.199996 μM) was 1.086 and 0.9378 and 0.7276 and the “Normalised V0” value (BRCC36–Abraxas 2 complex; FX-171-C 0.499975 μM) was 1.276 and 0.8855 and 0.9134. The “Normalised V0” value (BRCC36–Abraxas 2 complex; FX-171-C 0.799936 μM) was 1.016 and 0.9326 and 0.9281, the “Normalised V0” value (BRCC36–Abraxas 2 complex; FX-171-C 1.25984 μM) was 1.192 and 1.006 and 0.8037 and the “Normalised V0” value (BRCC36–Abraxas 2 complex; FX-171-C 1.9996 μM) was 1.057 and 0.8883 and 0.8901. For the same compound, the “Normalised V0” value (BRCC36–Abraxas 2 complex; FX-171-C 3.159 μM) was 1.054 and 1.032 and 0.8522, the “Normalised V0” value (BRCC36–Abraxas 2 complex; FX-171-C 5.19739 μM) was 1.053 and 0.9454 and 1.03 and the “Normalised V0” value (BRCC36–Abraxas 2 complex; FX-171-C 7.99364 μM) was 1.141 and 1 and 1.012. The “Normalised V0” value (BRCC36–Abraxas 2 complex; FX-171-C 12.7839 μM) was 1.078 and 0.9313 and 0.7823, the “Normalised V0” value (BRCC36–Abraxas 2 complex; FX-171-C 19.96 μM) was 1.034 and 1.063 and 0.8934 and the “Normalised V0” value (BRCC36–Abraxas 2 complex; FX-171-C 31.4999 μM) was 1.1494 and 0.9768 and 0.8462. The “Normalised V0” value (BRCC36–Abraxas 2 complex; FX-171-C 50.147 μM) was 1.218 and 1.114 and 0.9054, the “Normalised V0” value (BRCC36–Abraxas 2 complex; FX-171-C 79.7601 μM) was 1.112 and 1.275 and 1.169 and the “Normalised V0” value (BRCC36–Abraxas 2 complex; FX-171-C 125.99 μM) was 1.275 and 1.029 and 0.9009. For the same compound, the “Normalised V0” value (BRCC36–Abraxas 2 complex; FX-171-C 199.922 μM) was 1.127 and 0.8107 and 0.6392, the “inhibition of BRCC36–Abraxas 2 complex” value (BRCC36–Abraxas 2 complex; minimally active complex) was “did not inhibit” and the “BRISC dimers detected by native MS” value (BRISC (FL)) was “BRISC dimers with 4:4:4:4 stoichiometry were detected”. For the same compound, the “ISG expression (ISG15, IFIT1, IFIT2, IFITM1, CXCL10)” value [2] was “a reduction in ISG expression was not observed”.
